For 7 compounds, inhibition results are on record in ChEMBL document CHEMBL4739714, “Inhibitors of cyclin-dependent kinase 12 (cdk12) and uses thereof” (2020).

Activity calls are given as the source filed them. No cut-off for these calls is given here.

Cyclin-dependent kinase 7 (Homo sapiens), sequence (P50613 whole entry): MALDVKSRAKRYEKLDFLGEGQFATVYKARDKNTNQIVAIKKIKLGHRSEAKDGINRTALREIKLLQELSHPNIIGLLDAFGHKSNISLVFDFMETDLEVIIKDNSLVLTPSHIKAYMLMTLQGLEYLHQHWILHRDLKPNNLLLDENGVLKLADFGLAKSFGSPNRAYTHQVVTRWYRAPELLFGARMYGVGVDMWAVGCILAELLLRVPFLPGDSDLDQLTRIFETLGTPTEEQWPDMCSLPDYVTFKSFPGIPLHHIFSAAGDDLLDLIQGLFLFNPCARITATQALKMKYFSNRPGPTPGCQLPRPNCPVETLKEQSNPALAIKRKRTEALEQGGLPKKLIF

One experiment has as its target Cyclin-dependent kinase 12/13 (Homo sapiens) (UniProt Q14004+Q9NYV4). The experiment in a line: Inhibition of biotinylated-THZ1 binding to CDK12/CDK13 in human Jurkat cells assessed as reduction in cyclin K pull down at 1 uM preincubated for 6 hrs followed by biotinylated-THZ1 addition by Western blotting based pull-down assay. The class given is cell-based. A general note: Immunoblotting shows a protein as a band on a membrane.
Take `CN(C)C/C=C/C(=O)Nc1ccc(O[C@@H]2CCC[C@@H](Nc3ncc(Cl)c(-c4c[nH]c5ccccc45)n3)C2)cc1`: the inhibition entry is “Active”.

For `CN(C)C/C=C/C(=O)Nc1ccc(C(=O)Nc2cccc(Nc3ncc(Cl)c(-c4c[nH]c5ccccc45)n3)c2)cc1`, the inhibition entry was “Active”.

Another experiment concerns the target Cyclin-dependent kinase 7 (Homo sapiens) (UniProt P50613). Nature of the experiment: Inhibition of biotinylated-THZ1 binding to CDK7 in human Jurkat cells assessed as reduction in cyclin H pull down at 1 uM preincubated for 6 hrs followed by biotinylated-THZ1 addition by Western blotting based pull-down assay. The experiment is classed as cell-based.
On to `CN(C)C/C=C/C(=O)Nc1ccc(O[C@@H]2CCC[C@@H](Nc3ncc(Cl)c(-c4c[nH]c5ccccc45)n3)C2)cc1`, for which the inhibition result is “inactive”.

With `C=CC(=O)Nc1ccc(N2CCC[C@@H](Nc3ncc(Cl)c(-c4c[nH]c5ccccc45)n3)C2)cc1`, the inhibition entry is “inactive”.

`CN(C)C/C=C/C(=O)Nc1ccc(N2CCC[C@@H](Nc3ncc(Cl)c(-c4c[nH]c5ccccc45)n3)C2)nc1`: the inhibition result is “inactive”.

With `CN(C)C/C=C/C(=O)Nc1ccc(C(=O)Nc2cccc(Nc3ncc(Cl)c(-c4c[nH]c5ccccc45)n3)c2)cc1`, the inhibition entry is “Active”.

The target in a further experiment is Cyclin-dependent kinase 12 (Homo sapiens) (UniProt Q9NYV4). Nature of the experiment: Inhibition of biotinylated-THZ1 binding to CDK12 in human Jurkat cells assessed as reduction in cyclin K pull down at 1 uM preincubated for 6 hrs followed by biotinylated-THZ1 addition by Western blotting based pull-down assay. The experiment is classed as cell-based.
Cyclin-dependent kinase 12 (Homo sapiens), sequence (Q9NYV4 whole entry, looked up): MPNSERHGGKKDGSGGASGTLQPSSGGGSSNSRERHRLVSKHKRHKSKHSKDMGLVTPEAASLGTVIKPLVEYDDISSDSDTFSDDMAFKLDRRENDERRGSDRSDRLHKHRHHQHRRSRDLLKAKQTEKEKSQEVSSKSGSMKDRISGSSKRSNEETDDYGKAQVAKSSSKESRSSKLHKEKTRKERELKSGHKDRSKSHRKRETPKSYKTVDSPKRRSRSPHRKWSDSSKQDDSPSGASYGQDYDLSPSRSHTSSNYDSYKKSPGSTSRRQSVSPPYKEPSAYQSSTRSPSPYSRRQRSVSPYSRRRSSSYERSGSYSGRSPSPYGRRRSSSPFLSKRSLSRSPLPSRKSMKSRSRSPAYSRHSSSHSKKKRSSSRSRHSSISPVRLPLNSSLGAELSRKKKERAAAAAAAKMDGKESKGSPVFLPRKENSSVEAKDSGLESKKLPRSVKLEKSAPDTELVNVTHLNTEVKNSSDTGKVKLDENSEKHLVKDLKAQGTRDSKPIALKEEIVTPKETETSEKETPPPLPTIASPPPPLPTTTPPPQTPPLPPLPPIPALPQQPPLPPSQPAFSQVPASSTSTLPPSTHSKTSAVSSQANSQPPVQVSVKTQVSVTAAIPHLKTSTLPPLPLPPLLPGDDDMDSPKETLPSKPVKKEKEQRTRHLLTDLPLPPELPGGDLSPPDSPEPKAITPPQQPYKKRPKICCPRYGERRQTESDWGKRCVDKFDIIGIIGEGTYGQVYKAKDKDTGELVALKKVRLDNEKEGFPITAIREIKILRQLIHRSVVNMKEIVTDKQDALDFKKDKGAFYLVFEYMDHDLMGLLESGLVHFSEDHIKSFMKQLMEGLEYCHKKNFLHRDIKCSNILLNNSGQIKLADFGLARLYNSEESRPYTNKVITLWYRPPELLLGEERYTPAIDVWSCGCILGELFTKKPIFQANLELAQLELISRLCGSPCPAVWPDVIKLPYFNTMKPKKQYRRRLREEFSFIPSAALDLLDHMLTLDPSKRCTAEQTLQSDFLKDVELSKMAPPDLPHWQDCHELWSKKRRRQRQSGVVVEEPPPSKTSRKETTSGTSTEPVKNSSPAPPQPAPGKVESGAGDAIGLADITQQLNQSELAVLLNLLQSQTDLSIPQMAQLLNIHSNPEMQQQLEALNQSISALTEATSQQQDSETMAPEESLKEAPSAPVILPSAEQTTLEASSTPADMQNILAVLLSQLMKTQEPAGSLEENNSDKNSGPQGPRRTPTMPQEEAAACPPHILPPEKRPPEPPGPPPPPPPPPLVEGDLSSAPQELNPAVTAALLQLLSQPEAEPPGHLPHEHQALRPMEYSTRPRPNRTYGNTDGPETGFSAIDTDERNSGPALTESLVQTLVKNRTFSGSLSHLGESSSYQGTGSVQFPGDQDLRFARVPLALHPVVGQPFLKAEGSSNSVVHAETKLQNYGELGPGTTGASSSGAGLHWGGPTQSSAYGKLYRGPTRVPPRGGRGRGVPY
In the case of `C=CC(=O)Nc1ccc(N2CCC[C@@H](Nc3ncc(Cl)c(-c4c[nH]c5ccccc45)n3)C2)nc1`, the inhibition entry is “inactive”.

In the case of `CN(C)C/C=C/C(=O)Nc1ccc(C(=O)N2CCC[C@@H](Nc3ncc(Cl)c(-c4c[nH]c5ccccc45)n3)C2)nc1`, the inhibition result was “inactive”.

`C=CC(=O)Nc1ccc(O[C@@H]2CCC[C@@H](Nc3ncc(Cl)c(-c4c[nH]c5ccccc45)n3)C2)cc1`: the inhibition entry is “inactive”.

Turning to `CN(C)C/C=C/C(=O)Nc1ccc(O[C@@H]2CCC[C@@H](Nc3ncc(Cl)c(-c4c[nH]c5ccccc45)n3)C2)cc1`, the inhibition result is “inactive”.

Take `C=CC(=O)Nc1ccc(N2CCC[C@@H](Nc3ncc(Cl)c(-c4c[nH]c5ccccc45)n3)C2)cc1`: the inhibition result was “inactive”.

Consider `CN(C)C/C=C/C(=O)Nc1ccc(N2CCC[C@@H](Nc3ncc(Cl)c(-c4c[nH]c5ccccc45)n3)C2)nc1`, for which the inhibition result was “inactive”.
